Data taken from PubChem BioAssay (NCI).
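Cells were grown in 96-well plates and exposed to each compound for 48 hours at five concentrations; endpoints were interpolated linearly between bracketing concentrations, or set to the highest concentration if not reached. The concentration for full growth arrest is given as TGI.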

Experiments:
Assay in all cases: NCI anticancer screen, dose series, 48 h
A498 renal = test system: A498 renal
SR leukemia = test system: SR leukemia
T-47D breast = test system: T-47D breast
RXF 393 renal = test system: RXF 393 renal
COLO 205 colon = test system: COLO 205 colon
NCI-H226 lung = test system: NCI-H226 lung
K-562 leukemia = test system: K-562 leukemia
A549 NSCLC = test system: A549 NSCLC
MCF7 breast = test system: MCF7 breast
NCI-H23 lung = test system: NCI-H23 lung
SNB-75 CNS = test system: SNB-75 CNS
HOP-62 NSCLC = test system: HOP-62 NSCLC
NCI/ADR-RES ovarian = test system: NCI/ADR-RES ovarian
CCRF-CEM leukemia = test system: CCRF-CEM leukemia
SW-620 colon = test system: SW-620 colon
HL-60(TB) leukemia = test system: HL-60(TB) leukemia
MDA-MB-231 breast = test system: MDA-MB-231 breast
SNB-19 CNS = test system: SNB-19 CNS
HOP-92 NSCLC = test system: HOP-92 NSCLC
HS 578T breast = test system: HS 578T breast
HCT-15 colon = test system: HCT-15 colon
HCC-2998 colon = test system: HCC-2998 colon
UO-31 renal = test system: UO-31 renal
SN12C renal = test system: SN12C renal
M14 melanoma = test system: M14 melanoma
IGROV1 ovarian = test system: IGROV1 ovarian
CAKI-1 renal = test system: CAKI-1 renal
LOX IMVI melanoma = test system: LOX IMVI melanoma
UACC-62 melanoma = test system: UACC-62 melanoma
EKVX NSCLC = test system: EKVX NSCLC
KM12 colon = test system: KM12 colon
RPMI-8226 leukemia = test system: RPMI-8226 leukemia
SK-MEL-5 melanoma = test system: SK-MEL-5 melanoma
MOLT-4 leukemia = test system: MOLT-4 leukemia
SK-MEL-28 melanoma = test system: SK-MEL-28 melanoma
UACC-257 melanoma = test system: UACC-257 melanoma
HT29 colon = test system: HT29 colon
ACHN renal = test system: ACHN renal
786-0 renal = test system: 786-0 renal
TK-10 renal = test system: TK-10 renal
HCT-116 colon = test system: HCT-116 colon
OVCAR-4 ovarian = test system: OVCAR-4 ovarian
SK-MEL-2 melanoma = test system: SK-MEL-2 melanoma
U251 CNS = test system: U251 CNS
MDA-MB-435 = test system: MDA-MB-435
NCI-H522 lung = test system: NCI-H522 lung
PC-3 prostate = test system: PC-3 prostate
OVCAR-3 ovarian = test system: OVCAR-3 ovarian
SF-268 CNS = test system: SF-268 CNS
MALME-3M melanoma = test system: MALME-3M melanoma
SK-OV-3 ovarian = test system: SK-OV-3 ovarian
OVCAR-8 ovarian = test system: OVCAR-8 ovarian
NCI-H460 lung = test system: NCI-H460 lung
DU-145 prostate = test system: DU-145 prostate
MDA-N = test system: MDA-N
OVCAR-5 ovarian = test system: OVCAR-5 ovarian
SF-295 CNS = test system: SF-295 CNS
SF-539 CNS = test system: SF-539 CNS

Measured: TGI

COC(=O)C1(F)C(=O)NC(=O)NC1O (stereo not drawn)
> 100 µM: all assays above
